# Bridges are numbered along the chain shown (N, C = ends). Where no end group is shown, it is not given here.
# T1: human MRP-14 (hS100A9) (Homo sapiens, UniProt P06702)
# T1 sequence (P06702 1-114): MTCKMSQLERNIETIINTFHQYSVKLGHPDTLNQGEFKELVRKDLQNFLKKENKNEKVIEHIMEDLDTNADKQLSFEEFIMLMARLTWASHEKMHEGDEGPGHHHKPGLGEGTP
# T2: mouse MRP-14 (mS100A9) (Mus musculus, UniProt P31725)
# T2 sequence (P31725 1-113): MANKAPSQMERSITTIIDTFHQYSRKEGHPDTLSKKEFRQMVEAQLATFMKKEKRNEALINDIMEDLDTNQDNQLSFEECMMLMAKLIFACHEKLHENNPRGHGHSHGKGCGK
# T3: MRP-8/14 heterodimer (untagged MRP-8 premixed 1:1 with His-tagged MRP-14) (human | , UniProt P06702;P05109)
# T3 sequence 1: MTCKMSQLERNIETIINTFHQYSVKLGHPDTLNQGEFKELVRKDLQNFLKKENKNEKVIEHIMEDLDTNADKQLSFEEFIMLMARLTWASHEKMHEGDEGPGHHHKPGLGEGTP
# T3 sequence 2: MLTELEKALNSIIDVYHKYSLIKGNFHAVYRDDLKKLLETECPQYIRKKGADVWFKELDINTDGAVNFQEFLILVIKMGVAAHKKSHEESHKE
# T4: His-tagged MRP-14 (myeloid related protein 14) (human, UniProt P06702 1-114)
# T4 sequence: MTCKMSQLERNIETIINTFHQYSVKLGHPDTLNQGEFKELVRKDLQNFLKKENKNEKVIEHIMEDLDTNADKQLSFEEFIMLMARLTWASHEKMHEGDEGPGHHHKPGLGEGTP
# Legend:
# human MRP-14 (hS100A9) = molecular target: T1, human MRP-14 (hS100A9); assay: ELISA-based binding affinity of MRP-14-targeted TMV, human protein; conditions: read-out: KD (nM) human MRP-14, hS100A9 2 μg/mL coated, TMV 0-5 μg/mL, anti-TMV detection, single-site binding model, estimated
# mouse MRP-14 (mS100A9) = molecular target: T2, mouse MRP-14 (mS100A9); assay: ELISA-based binding affinity of MRP-14-targeted TMV, mouse protein; conditions: for Kd: read-out: KD (nM) mouse MRP-14, ELISA, mS100A9 2 μg/mL coated, TMV 0-5 μg/mL, anti-TMV detection, single-site binding model, estimated
# [1] = test system: deep vein thrombi in inferior vena cava; assay: Murine DVT model; type: in vivo, mouse; conditions: vs PBS group, 3 h postinjection
# [2] = molecular target: T3, MRP-8/14 heterodimer (untagged MRP-8 …); assay: SPR
# [3] = molecular target: T4, His-tagged MRP-14 (myeloid related …); assay: SPR
Molecule,Kd (human MRP-14 (hS100A9)) [nM],Kd (mouse MRP-14 (mS100A9)) [nM],Kd [3] [µM],further results
ASSHIHHGGGS-C [TMV-MTP2],13.1,11.9,,
ACNSVHQHHCGGGS-N3 (disulfide) [TMV-MTP6],11.4,2.6,,"binding affinity, times stronger toward mouse than human MRP-14 (mouse MRP-14 (mS100A9); ratio of ELISA KD values, mouse vs human MRP-14): ~ 4 times"
ASSHIHHGGGS-C [CPMV-MTP2],,,,reduction in thrombus weight and area [1]: 50%
ACNSVHQHHCGGGS [MTP6 synthetic peptide with GGGS spacer],,,39.6,Kd [2]: 57.6 µM
HNHMADPGGGS-NH2 [MTP3 synthetic peptide with GGGS spacer],,,117,
ACNSHRHGACGGGS-NH2 (disulfide 2-10 (inferred)) [MTP5 synthetic peptide with GGGS spacer],,,67.6,

# From article PMC9679916 (Biomacromolecules, 2021)
